Patent US9168259B2 (GRÜNENTHAL GMBH, priority 2010, dated 2015)
Like-named read-outs stand apart in the source and are kept apart here.

Columns and labels:
rat = assay: Low-intensity tail flick test (rat); type: in vivo; conditions: po, peroral, MPE = % of maximum possible effect
Description: Method II. Low-Intensity Tail Flick Test (Rat)
In the low-intensity tail flick test, the determination of the antinociceptive effect of the compounds according to the invention towards an acute noxious thermal stimulus is carried out by measuring the withdrawal reflex of the rat tail (tail flick) in response to a radiant heat beam (analgesia meter; model 2011 of the company Rhema Labortechnik, Hofheim, Germany) according to the method described by D'Amour and Smith (J. Pharm. Exp. Ther. 72, 74 79 (1941). To this end, the rats were placed in a plexiglass restrainer, and a low-intensity radiant heat beam (48° C.) was focused onto the dorsal surface of the tail root. The stimulus intensity was adjusted to result in a mean pre-drug control withdrawal latency of about 7 s, thus also allowing a supraspinal modulation of the spinally mediated acute nociceptive reflex. A cutoff time of 30 s was applied to avoid tissue damage. Male Sprague-Dawley rats (Janvier, Le Genest St. Isle, Frankreich) with weights of 200-250 g were used. 10 rats were used per group. Before administration of a compound according to the invention, the animals were pre-tested twice in the course of five minutes and the mean of these measurements was calculated as the pre-test mean. The antinociceptive effect was determined at 20, 40 and 60 min after peroral compound administration. The antinociceptive effect was calculated based on the increase in the tail withdrawal latency according to the following formula and is expressed as percentage of the maximum possible effect (MPE [%]): MPE=[(T1−T0)/(T2−T0)]*100
In this, T0 is the control latency time before and T1 the latency time after administration of the compound, T2 is the cutoff time and MPE is the maximum possible effect. Employing variant analysis (repeated measures ANOVA) allowed testing of statistically significant differences between the compounds according to the invention and the vehicle group. The significance level was set to p≦0.05. To determine the dose dependency, the particular compound according to the invention was administered in 3-5 logarithmically increasing doses, including a threshold dose and a maximum effective dose, and the ED50 values were determined with the aid of regression analysis. The ED50 calculation was performed at the time of maximum efficacy (usually 20 min after administration of the compounds).

KCNQ2/3 channels = target: T1, KCNQ2/3 channels (Homo sapiens, UniProt O43525+O43526); assay: Fluorescence assay using a voltage sensitive dye (fluorimetry); type: cell-based; conditions: for EC50: IC50 where % efficacy is negative, read-out: Fluorimetry EC50/IC50
T1 construct: expressed in transfected cells

[1] = CHO-K1, plateau effect relative to saturated retigabine (50 μM) = 100%, CHO-K1 cells expressing KCNQ2/3, negative values = antagonistic, read-out: Fluorimetry % efficacy (retigabine = 100%)
[2] = CHO-K1 cells expressing KCNQ2/3

T1 sequence (O43526 whole entry): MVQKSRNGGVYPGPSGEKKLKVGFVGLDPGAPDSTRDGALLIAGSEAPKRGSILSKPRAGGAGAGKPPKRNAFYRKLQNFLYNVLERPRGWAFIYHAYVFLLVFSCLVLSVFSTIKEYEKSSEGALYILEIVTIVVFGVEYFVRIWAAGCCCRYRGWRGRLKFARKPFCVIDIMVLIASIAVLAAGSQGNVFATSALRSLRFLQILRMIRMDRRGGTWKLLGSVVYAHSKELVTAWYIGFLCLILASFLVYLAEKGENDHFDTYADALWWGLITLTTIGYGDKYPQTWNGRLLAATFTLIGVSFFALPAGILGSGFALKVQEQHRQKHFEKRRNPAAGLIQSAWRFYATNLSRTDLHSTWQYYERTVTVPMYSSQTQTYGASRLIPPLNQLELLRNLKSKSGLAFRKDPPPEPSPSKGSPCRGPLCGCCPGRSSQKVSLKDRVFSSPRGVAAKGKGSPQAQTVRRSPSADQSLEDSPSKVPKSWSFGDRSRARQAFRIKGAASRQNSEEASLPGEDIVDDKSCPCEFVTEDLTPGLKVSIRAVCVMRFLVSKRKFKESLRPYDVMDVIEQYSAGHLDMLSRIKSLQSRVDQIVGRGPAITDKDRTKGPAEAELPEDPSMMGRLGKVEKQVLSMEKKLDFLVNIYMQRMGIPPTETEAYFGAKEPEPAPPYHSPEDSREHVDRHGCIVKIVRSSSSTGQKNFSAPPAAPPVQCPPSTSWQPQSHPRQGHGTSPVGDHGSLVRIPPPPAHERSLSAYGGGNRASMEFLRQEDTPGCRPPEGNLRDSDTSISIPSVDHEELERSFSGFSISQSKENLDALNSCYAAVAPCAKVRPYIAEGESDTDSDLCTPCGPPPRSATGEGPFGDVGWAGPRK
T1 sequence (O43525 whole entry): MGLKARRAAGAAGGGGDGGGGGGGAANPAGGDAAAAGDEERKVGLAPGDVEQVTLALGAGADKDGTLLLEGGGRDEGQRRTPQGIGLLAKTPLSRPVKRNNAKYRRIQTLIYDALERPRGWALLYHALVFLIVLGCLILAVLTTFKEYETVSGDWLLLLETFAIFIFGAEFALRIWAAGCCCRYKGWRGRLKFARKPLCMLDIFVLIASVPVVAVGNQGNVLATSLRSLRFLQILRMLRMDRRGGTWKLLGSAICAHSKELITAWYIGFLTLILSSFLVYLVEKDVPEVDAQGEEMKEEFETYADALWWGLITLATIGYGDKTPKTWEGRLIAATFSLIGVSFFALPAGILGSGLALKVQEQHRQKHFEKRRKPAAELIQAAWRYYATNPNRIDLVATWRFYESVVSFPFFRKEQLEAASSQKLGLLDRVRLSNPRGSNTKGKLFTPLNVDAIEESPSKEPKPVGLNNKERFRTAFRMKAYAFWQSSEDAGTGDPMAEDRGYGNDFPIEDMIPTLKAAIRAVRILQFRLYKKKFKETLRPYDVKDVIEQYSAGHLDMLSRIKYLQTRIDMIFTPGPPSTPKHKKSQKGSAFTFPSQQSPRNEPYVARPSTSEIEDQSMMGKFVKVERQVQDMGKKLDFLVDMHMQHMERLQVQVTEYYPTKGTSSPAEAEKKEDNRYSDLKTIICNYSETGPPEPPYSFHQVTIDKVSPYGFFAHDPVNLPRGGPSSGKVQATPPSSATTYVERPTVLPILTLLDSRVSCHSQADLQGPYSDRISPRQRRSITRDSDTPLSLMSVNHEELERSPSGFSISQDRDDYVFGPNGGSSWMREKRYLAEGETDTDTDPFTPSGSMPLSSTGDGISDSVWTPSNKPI

## CSc1nc(N2CCOCC2)cc(C)c1C(=O)NCc1cccc(F)c1 [Example 40, N-[(3-Fluorophenyl)-methyl]-4-methyl-2-methylsulfanyl-6-morpholin-4-yl-pyridine-3-carboxylic acid amide]
rat
  inhibition in vivo at 10 mg/kg: 84%
KCNQ2/3 channels; [1]
  Emax: 168%
KCNQ2/3 channels; [2]
  EC50: 0.587 µM

## CCSc1nc(N2CCOCC2)cc(C)c1C(=O)NCCCC(C)(C)C [Example 67, N-(4,4-Dimethyl-pentyl)-2-ethylsulfanyl-4-methyl-6-morpholin-4-yl-pyridine-3-carboxylic acid amide]
rat
  inhibition in vivo at 10 mg/kg: 100%
KCNQ2/3 channels; [1]
  Emax: 244%
KCNQ2/3 channels; [2]
  EC50: 0.042 µM

## COc1nc(N2CCOCC2)cc(C)c1C(=O)NCc1cccc(F)c1 [Example 19, N-[(3-Fluorophenyl)-methyl]-2-methoxy-4-methyl-6-morpholin-4-yl-pyridine-3-carboxylic acid amide]
rat
  inhibition in vivo at 10 mg/kg: 79%
KCNQ2/3 channels; [1]
  Emax: 155%
KCNQ2/3 channels; [2]
  EC50: 0.736 µM

## CCSc1nc(N2CCOCC2)cc(C)c1C(=O)NCc1cc(F)cc(F)c1 [Example 1, N-[(3,5-Difluoro-phenyl)-methyl]-2-ethylsulfanyl-4-methyl-6-morpholin-4-yl-pyridine-3-carboxylic acid amide]
rat; dose 4.64 mg/kg
  inhibition in vivo at 4.64 mg/kg: 78%
KCNQ2/3 channels; [1]
  Emax: 160%
KCNQ2/3 channels; [2]
  EC50: 0.056 µM

## CCSc1nc(N2CCOCC2)cc(C)c1C(=O)NCc1ccc(F)c(F)c1 [Example 41, N-[(3,4-Difluoro-phenyl)-methyl]-2-ethylsulfanyl-4-methyl-6-morpholin-4-yl-pyridine-3-carboxylic acid amide]
rat; dose 6.81 mg/kg
  inhibition in vivo at 6.81 mg/kg: 92%
KCNQ2/3 channels; [1]
  Emax: 169%
KCNQ2/3 channels; [2]
  EC50: 0.069 µM

## Cc1cc(N2CCOCC2)nc(C2CC2)c1C(=O)NCCCC(F)(F)F [Example 329, 2-Cyclopropyl-4-methyl-6-morpholin-4-yl-N-(4,4,4-trifluoro-butyl)-pyridine-3-carboxylic acid amide]
KCNQ2/3 channels; [1]
  Emax: 170%
KCNQ2/3 channels; [2]
  EC50: 0.763 µM

## CCSc1nc(N2CCc3nc(C(F)(F)F)ccc3C2)cc(C)c1C(=O)NCc1cccc(F)c1 [Example 232, 2-Ethylsulfanyl-N-[(3-fluorophenyl)-methyl]-4-methyl-6-[2-(trifluoromethyl)-5,6,7,8-tetrahydro-[1,6]naphthyridin-6-yl]-pyridine-3-carboxylic acid amide]
KCNQ2/3 channels; [1]
  Emax: 131%
KCNQ2/3 channels; [2]
  EC50: 0.112 µM

## CCSc1nc(N2CCOCC2)cc(C)c1C(=O)NCc1ccc(OC(F)F)cc1 [Example 288, N-[[4-(Difluoro-methoxy)-phenyl]-methyl]-2-ethylsulfanyl-4-methyl-6-morpholin-4-yl-pyridine-3-carboxylic acid amide]
KCNQ2/3 channels; [1]
  Emax: 138%
KCNQ2/3 channels; [2]
  EC50: 0.435 µM

## CCSc1nc(N2CCOCC2)cc(C)c1C(=O)NCCCc1ccccc1 [Example 53, 2-Ethylsulfanyl-4-methyl-6-morpholin-4-yl-N-(3-phenyl-propyl)-pyridine-3-carboxylic acid amide]
KCNQ2/3 channels; [1]
  Emax: 191%
KCNQ2/3 channels; [2]
  EC50: 0.248 µM

## CCSc1nc(N2CCOCC2)cc(C)c1C(=O)NCc1ccc(S(C)(=O)=O)cc1 [Example 247, 2-Ethylsulfanyl-4-methyl-N-[(4-methylsulfonyl-phenyl)-methyl]-6-morpholin-4-yl-pyridine-3-carboxylic acid amide]
KCNQ2/3 channels; [1]
  Emax: 38%

## CCSc1nc(N2CCOC[C@@H]2COC)cc(C)c1C(=O)NCc1cccc(F)c1 [Example 180, 2-Ethylsulfanyl-N-[(3-fluorophenyl)-methyl]-6-[(3S)-3-(methoxymethyl)-morpholin-4-yl]-4-methyl-pyridine-3-carboxylic acid amide]
KCNQ2/3 channels; [1]
  Emax: 123%
KCNQ2/3 channels; [2]
  EC50: 0.086 µM

## CCSc1nc(N2CCC(C(=O)OC)CC2)cc(C)c1C(=O)NCc1cccc(F)c1 [Example 13]
KCNQ2/3 channels; CHO-K1, read-out: Fluorimetry % efficacy (retigabine = 100%)
  Emax: 145%
KCNQ2/3 channels; [2]
  EC50: 1.09 µM

## CCOc1nc(N2CCOCC2)cc(C)c1C(=O)NCCCC(F)(F)F [Example 133, 2-Ethoxy-4-methyl-6-morpholin-4-yl-N-(4,4,4-trifluoro-butyl)-pyridine-3-carboxylic acid amide]
KCNQ2/3 channels; [1]
  Emax: 235%
KCNQ2/3 channels; [2]
  EC50: 0.392 µM

## CCSc1nc(N2CCOCC2)cc(C)c1C(=O)NCc1ccc(COC)cc1 [Example 146, 2-Ethylsulfanyl-N-[[4-(methoxymethyl)-phenyl]-methyl]-4-methyl-6-morpholin-4-yl-pyridine-3-carboxylic acid amide]
KCNQ2/3 channels; [1]
  Emax: 159%
KCNQ2/3 channels; [2]
  EC50: 2.49 µM

## CCSc1nc(N(C)C2CCCOC2)cc(C)c1C(=O)NCc1cccc(F)c1 (stereo not drawn) [Example 261, 2-Ethylsulfanyl-N-[(3-fluorophenyl)-methyl]-4-methyl-6-(methyl-tetrahydro-pyran-3-yl-amino)-pyridine-3-carboxylic acid amide]
KCNQ2/3 channels; [1]
  Emax: 96%
KCNQ2/3 channels; [2]
  EC50: 0.786 µM

## CCSc1nc(N2CC(OC)C2)cc(C)c1C(=O)NCc1cccc(F)c1 [Example 6, 2-Ethylsulfanyl-N-[(3-fluorophenyl)-methyl]-6-(3-methoxy-azetidin-1-yl)-4-methyl-pyridine-3-carboxylic acid amide]
KCNQ2/3 channels; [1]
  Emax: 140%
KCNQ2/3 channels; [2]
  EC50: 3.87 µM

## CCSc1nc(N2CCC(=O)CC2)cc(C)c1C(=O)NCc1cccc(F)c1 [Example 16, 2-Ethylsulfanyl-N-[(3-fluorophenyl)-methyl]-4-methyl-6-(4-oxo-piperidin-1-yl)-pyridine-3-carboxylic acid amide]
KCNQ2/3 channels; [1]
  Emax: 149%
KCNQ2/3 channels; [2]
  EC50: 2.52 µM

## CCSc1nc(N2CCOCC2)cc(C)c1C(=O)NCCCC(F)(F)F [Example 84, 2-Ethylsulfanyl-4-methyl-6-morpholin-4-yl-N-(4,4,4-trifluoro-butyl)-pyridine-3-carboxylic acid amide]
KCNQ2/3 channels; [1]
  Emax: 203%
KCNQ2/3 channels; [2]
  EC50: 0.357 µM

## CCSc1nc(N(C)C)cc(C)c1C(=O)NCc1cccc(F)c1 [Example 33, 6-Dimethylamino-2-ethylsulfanyl-N-[(3-fluorophenyl)-methyl]-4-methyl-pyridine-3-carboxylic acid amide]
KCNQ2/3 channels; [1]
  Emax: 110%
KCNQ2/3 channels; [2]
  EC50: 0.639 µM

## CCSc1nc(N2CCc3ccccc3C2)cc(C)c1C(=O)NCc1cccc(F)c1 [Example 26, 2-Ethylsulfanyl-N-[(3-fluorophenyl)-methyl]-4-methyl-6-(1,2,3,4-tetrahydro-isoquinolin-2-yl)-pyridine-3-carboxylic acid amide]
KCNQ2/3 channels; [1]
  Emax: 155%
KCNQ2/3 channels; [2]
  EC50: 0.132 µM

## CCSc1nc(N2CCOCC2)cc(C)c1C(=O)NCc1ccc(F)c(OC)c1 [Example 284, 2-Ethylsulfanyl-N-[(4-fluoro-3-methoxy-phenyl)-methyl]-4-methyl-6-morpholin-4-yl-pyridine-3-carboxylic acid amide]
KCNQ2/3 channels; [1]
  Emax: 94%
KCNQ2/3 channels; [2]
  EC50: 0.648 µM

## CCSc1nc(N2CCOCC2)cc(C)c1C(=O)NCc1ccc(C#N)cc1 [Example 145, N-[(4-Cyano-phenyl)-methyl]-2-ethylsulfanyl-4-methyl-6-morpholin-4-yl-pyridine-3-carboxylic acid amide]
KCNQ2/3 channels; [1]
  Emax: 145%
KCNQ2/3 channels; [2]
  EC50: 0.673 µM

## CCSc1nc(N2CCOC[C@H]2C)cc(C)c1C(=O)NCc1ccc(F)cc1 [Example 177, 2-Ethylsulfanyl-N-[(4-fluorophenyl)-methyl]-4-methyl-6-[(3R)-3-methyl-morpholin-4-yl]-pyridine-3-carboxylic acid amide]
KCNQ2/3 channels; [1]
  Emax: 174%
KCNQ2/3 channels; [2]
  EC50: 0.097 µM

## Cc1cc(N2CCOCC2)nc(N(C)C)c1C(=O)NCc1ccc(F)cc1 [Example 205, 2-Dimethylamino-N-[(4-fluorophenyl)-methyl]-4-methyl-6-morpholin-4-yl-pyridine-3-carboxylic acid amide]
KCNQ2/3 channels; [1]
  Emax: 205%
KCNQ2/3 channels; [2]
  EC50: 0.898 µM

## CCSc1nc(N2CC3(COC3)C2)cc(C)c1C(=O)NCc1cccc(F)c1 [Example 151, 2-Ethylsulfanyl-N-[(3-fluorophenyl)-methyl]-4-methyl-6-(6-oxa-2-azaspiro[3.3]heptan-2-yl)-pyridine-3-carboxylic acid amide]
KCNQ2/3 channels; [1]
  Emax: 92%
KCNQ2/3 channels; [2]
  EC50: 12.1 µM

## CCSc1nc(N2CCOCC2)cc(C)c1C(=O)NCc1ccc2c(c1)OCO2 [Example 134, N-(1,3-Benzodioxol-5-yl-methyl)-2-ethylsulfanyl-4-methyl-6-morpholin-4-yl-pyridine-3-carboxylic acid amide]
KCNQ2/3 channels; [1]
  Emax: 159%
KCNQ2/3 channels; [2]
  EC50: 1.14 µM

## CCSc1nc(N2CC(O)C2)cc(C)c1C(=O)NCc1cccc(F)c1 [Example 7, 2-Ethylsulfanyl-N-[(3-fluorophenyl)-methyl]-6-(3-hydroxy-azetidin-1-yl)-4-methyl-pyridine-3-carboxylic acid amide]
KCNQ2/3 channels; [1]
  Emax: 44%
